What was measured:
[1] = target: T1, human tissue nonspecific alkaline phosphatase (h-TNAP) (Homo sapiens, UniProt P05186); assay: Alkaline phosphatase inhibition assay (h-TNAP), CDP-star luminescence; format: biochemical; conditions: for IC50: IC50 ± SEM, n = 3, DEA buffer; for selectivity h-TNAP over h-IAP (in words): h-TNAP versus h-IAP
T1 sequence (P05186 18-524): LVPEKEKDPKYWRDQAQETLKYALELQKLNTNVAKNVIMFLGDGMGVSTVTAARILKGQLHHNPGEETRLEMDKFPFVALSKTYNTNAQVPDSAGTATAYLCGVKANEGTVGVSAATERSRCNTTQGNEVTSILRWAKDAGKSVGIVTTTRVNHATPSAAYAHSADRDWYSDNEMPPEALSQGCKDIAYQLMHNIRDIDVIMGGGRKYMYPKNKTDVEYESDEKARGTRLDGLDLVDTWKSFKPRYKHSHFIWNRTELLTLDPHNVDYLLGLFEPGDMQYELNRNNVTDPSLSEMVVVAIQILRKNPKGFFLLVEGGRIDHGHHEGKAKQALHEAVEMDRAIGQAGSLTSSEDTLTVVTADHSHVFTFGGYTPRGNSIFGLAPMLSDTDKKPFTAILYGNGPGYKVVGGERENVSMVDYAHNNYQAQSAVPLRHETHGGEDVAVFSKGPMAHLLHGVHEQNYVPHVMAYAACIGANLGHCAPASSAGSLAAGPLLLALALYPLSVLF
Experimental: The inhibition assay was performed by following the already reported method[18] and the inhibitory activity was measured at the final concentration of 200 µM in diethanolamine (DEA) buffer as discussed in our published article. The first step of the inhibition assay was the treatment of 10 µl of tested derivatives with 20 µl of h-TNAP (46 ng/well) or of h-IAP (57 ng/well). […] Then, 20 µl of CDP-star® substrate was added to each reaction mixture and signals were again measured as after-read, after 15–20 min of incubation. The data were scrutinised by PRISM 5.0 (GraphPad, San Diego, CA) software and the inhibitory concentration values (IC50 values) were attained as discussed earlier.

[2] = target: T2, human intestinal alkaline phosphatase (h-IAP) (Homo sapiens, UniProt P09923); assay: Alkaline phosphatase inhibition assay (h-IAP), CDP-star luminescence; format: biochemical; conditions: for IC50: IC50 ± SEM, n = 3, DEA buffer
T2 sequence (P09923 20-528): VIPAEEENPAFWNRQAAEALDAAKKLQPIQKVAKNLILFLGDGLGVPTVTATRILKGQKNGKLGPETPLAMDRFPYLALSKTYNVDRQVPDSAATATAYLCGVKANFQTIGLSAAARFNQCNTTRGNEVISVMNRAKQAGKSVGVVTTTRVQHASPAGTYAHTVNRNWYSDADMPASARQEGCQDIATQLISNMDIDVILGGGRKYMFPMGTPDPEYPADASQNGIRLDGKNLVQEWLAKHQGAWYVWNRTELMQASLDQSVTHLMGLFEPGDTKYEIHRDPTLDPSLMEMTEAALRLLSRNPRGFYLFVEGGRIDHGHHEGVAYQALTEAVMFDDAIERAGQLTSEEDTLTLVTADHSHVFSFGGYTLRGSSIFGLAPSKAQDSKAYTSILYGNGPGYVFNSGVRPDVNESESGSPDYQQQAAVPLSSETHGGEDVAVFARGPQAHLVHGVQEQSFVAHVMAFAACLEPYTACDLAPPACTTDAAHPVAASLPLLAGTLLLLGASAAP
Experimental: The inhibition assay was performed by following the already reported method[18] and the inhibitory activity was measured at the final concentration of 200 µM in diethanolamine (DEA) buffer as discussed in our published article. The first step of the inhibition assay was the treatment of 10 µl of tested derivatives with 20 µl of h-TNAP (46 ng/well) or of h-IAP (57 ng/well). The plates were incubated at 37 °C for 5–10 min, and luminescence signals were recorded by microplate reader (BioTek FLx800, Instruments, Inc., Winooski, VT). Then, 20 µl of CDP-star® substrate was added to each reaction mixture and signals were again measured as after-read, after 15–20 min of incubation. The data were scrutinised by PRISM 5.0 (GraphPad, San Diego, CA) software and the inhibitory concentration values (IC50 values) were attained as discussed earlier.

[3] = test system: colon cancer cell line; parameters: method as in PMID 24360561, PMID 25016229, PMID 27779319; conditions: previously reported data; cited from earlier work
[4] = parameters: method as in PMID 24360561, PMID 25016229, PMID 27779319; conditions: previously reported data; cited from earlier work

Row | SMILES | IC50 [1] | IC50 [2] | other results
1 | CS(=O)(=O)Oc1ccc2c3c(c(=O)oc2c1)CCCCC3 [Compound 1a] | 0.48 ± 0.01 µM | 1.98 ± 0.19 µM | 
2 | CCS(=O)(=O)Oc1ccc2c3c(c(=O)oc2c1)CCCCC3 [Compound 1b] | 2.13 ± 0.19 µM | 2.71 ± 0.23 µM | 
3 | CCCS(=O)(=O)Oc1ccc2c3c(c(=O)oc2c1)CCCCC3 [Compound 1c] | 1.52 ± 0.17 µM | 0.91 ± 0.06 µM | 
4 | O=c1oc2cc(OS(=O)(=O)C3CC3)ccc2c2c1CCCCC2 [Compound 1d] | 0.98 ± 0.13 µM | 0.96 ± 0.08 µM | 
5 | O=c1oc2cc(OS(=O)(=O)c3ccccc3)ccc2c2c1CCCCC2 [Compound 1e] | 8.57 ± 0.73 µM | 1.84 ± 0.19 µM | 
6 | Cc1ccc(S(=O)(=O)Oc2ccc3c4c(c(=O)oc3c2)CCCCC4)cc1 [Compound 1f] | 0.38 ± 0.01 µM | 1.94 ± 0.11 µM | 
7 | O=c1oc2cc(OS(=O)(=O)c3ccc(F)cc3)ccc2c2c1CCCCC2 [Compound 1i] | 1.06 ± 0.11 µM | 0.45 ± 0.09 µM | melting point: 147 to 149 °C; antiproliferative effect against colon cancer cell line (in words) [3]: strongest antiproliferative derivatives; anti-inflammatory effects (in words) [4]: maximum anti-inflammatory effects
8 | CCS(=O)(=O)Oc1ccc2c3c(c(=O)oc2c1)CCCCCC3 [Compound 1j] | 1.74 ± 0.14 µM | 0.84 ± 0.09 µM | 
9 | CCCS(=O)(=O)Oc1ccc2c3c(c(=O)oc2c1)CCCCCC3 [Compound 1k] | 1.91 ± 0.11 µM | 3.37 ± 0.79 µM | 
10 | O=c1oc2cc(OS(=O)(=O)c3ccccc3)ccc2c2c1CCCCCC2 [Compound 1l] | 1.13 ± 0.21 µM | 2.82 ± 0.82 µM | 
11 | Cc1ccc(S(=O)(=O)Oc2ccc3c4c(c(=O)oc3c2)CCCCCC4)cc1 [Compound 1m] | 1.59 ± 0.16 µM | 2.12 ± 0.23 µM | antiproliferative effect against colon cancer cell line (in words) [3]: strongest antiproliferative derivatives; anti-inflammatory effects (in words) [4]: maximum anti-inflammatory effects
12 | COc1cc2c3c(c(=O)oc2cc1OS(C)(=O)=O)CCCCC3 [Compound 1o] | 1.21 ± 0.11 µM | 11.8 ± 1.91 µM | 
13 | COc1cc2c3c(c(=O)oc2cc1OS(C)(=O)=O)CCCCCC3 [Compound 1p] | 1.49 ± 0.13 µM | 1.51 ± 0.17 µM | 
14 | CCCS(=O)(=O)Oc1cc2oc(=O)c3c(c2cc1OC)CCCCC3 [Compound 1q] | 4.31 ± 0.99 µM | > 100 µM | selectivity h-TNAP over h-IAP (in words) [1]: selective inhibitors of h-TNAP
15 | CCCS(=O)(=O)Oc1cc2oc(=O)c3c(c2cc1OC)CCCCCC3 [Compound 1r] | 2.6 ± 0.49 µM | 0.75 ± 0.07 µM | 
16 | COc1cc2c3c(c(=O)oc2cc1OS(=O)(=O)c1ccccc1)CCCCC3 [Compound 1s] | 1.26 ± 0.07 µM | 3.88 ± 0.32 µM | 
17 | COc1cc2c3c(c(=O)oc2cc1OS(=O)(=O)c1ccccc1)CCCCCC3 [Compound 1t] | 2.68 ± 0.18 µM | 0.83 ± 0.06 µM | 
18 | COc1cc2c3c(c(=O)oc2cc1OS(=O)(=O)c1ccc(C)cc1)CCCCC3 [Compound 1u] | 1.65 ± 0.13 µM | 0.79 ± 0.05 µM | 
19 | COc1cc2c3c(c(=O)oc2cc1OS(=O)(=O)c1ccc(C)cc1)CCCCCC3 [Compound 1v] | 0.64 ± 0.02 µM | 1.45 ± 0.04 µM | 
20 | COc1cc2c3c(c(=O)oc2cc1OS(=O)(=O)c1ccc(C(F)(F)F)cc1)CCCCC3 [Compound 1w] | > 100 µM | > 100 µM | 
21 | COc1cc2c3c(c(=O)oc2cc1OS(=O)(=O)c1ccc(C(F)(F)F)cc1)CCCCCC3 [Compound 1x] | 1.29 ± 0.12 µM | 1.63 ± 0.19 µM | 
22 | CS(=O)(=O)Oc1cc2oc(=O)c3c(c2cc1Cl)CCCCC3 [Compound 1y] | > 100 µM | > 100 µM | activity towards h-IAP (in words) [2]: inactive
23 | O=c1oc2cc(OS(=O)(=O)c3ccccc3)c(Cl)cc2c2c1CCCCC2 [Compound 1z] | 5.73 ± 1.06 µM | > 100 µM | selectivity h-TNAP over h-IAP (in words) [1]: selective inhibitors of h-TNAP; activity towards h-IAP (in words) [2]: inactive
24 | Cc1ccc(S(=O)(=O)Oc2cc3oc(=O)c4c(c3cc2Cl)CCCCC4)cc1 [Compound 1za] | 2.22 ± 0.27 µM | 1.11 ± 0.01 µM | 
25 | N[C@@H](Cc1ccccc1)C(=O)O [L-Phenylalanine, reference compound] |  | 100 µM | 
